In PubChem BioAssay (NCI):
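Tested at 5 concentrations; 48 h exposure; 96-well plates; endpoints linearly interpolated, else capped at highest concentration. GI50 is the concentration that inhibits growth by half. TGI marks complete inhibition of growth.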

How the values were obtained:
Assay in all cases: growth of human tumour cells (NCI), 48 h
[1] = system: TK-10 renal
[2] = system: K-562 leukemia
[3] = system: SW-620 colon
[4] = system: OVCAR-4 ovarian
[5] = system: HCC-2998 colon
[6] = system: SF-295 CNS
[7] = system: MDA-MB-231 breast
[8] = system: SN12C renal
[9] = system: CAKI-1 renal
[10] = system: UACC-257 melanoma
[11] = system: KM12 colon
[12] = system: OVCAR-8 ovarian
[13] = system: U251 CNS
[14] = system: OVCAR-5 ovarian
[15] = system: A549 NSCLC
[16] = system: 786-0 renal
[17] = system: HS 578T breast
[18] = system: SF-539 CNS
[19] = system: MALME-3M melanoma
[20] = system: M14 melanoma
[21] = system: IGROV1 ovarian
[22] = system: HT29 colon
[23] = system: HCT-15 colon
[24] = system: MOLT-4 leukemia
[25] = system: UACC-62 melanoma
[26] = system: NCI/ADR-RES ovarian
[27] = system: LOX IMVI melanoma
[28] = system: UO-31 renal
[29] = system: HCT-116 colon
[30] = system: SNB-19 CNS
[31] = system: EKVX NSCLC
[32] = system: SK-MEL-5 melanoma
[33] = system: NCI-H23 lung
[34] = system: SR leukemia
[35] = system: DU-145 prostate
[36] = system: BT-549 breast
[37] = system: HL-60(TB) leukemia
[38] = system: NCI-H460 lung
[39] = system: SK-MEL-28 melanoma
[40] = system: PC-3 prostate
[41] = system: ACHN renal
[42] = system: NCI-H226 lung
[43] = system: NCI-H522 lung
[44] = system: CCRF-CEM leukemia
[45] = system: HOP-62 NSCLC
[46] = system: RXF 393 renal
[47] = system: SNB-75 CNS
[48] = system: SF-268 CNS
[49] = system: OVCAR-3 ovarian
[50] = system: COLO 205 colon
[51] = system: MCF7 breast
[52] = system: SK-MEL-2 melanoma
[53] = system: RPMI-8226 leukemia
[54] = system: MDA-MB-435
[55] = system: T-47D breast
[56] = system: A498 renal
[57] = system: SK-OV-3 ovarian

Structure (SMILES): C[n+]1c2ccc(Cl)cc2nc2cc(-c3ccccc3)ccc21
- TGI [1]: 43.2 µM
- TGI [2]: 66.8 µM
- TGI [3]: > 100 µM
- TGI [4]: 40.5 µM
- TGI [5]: 31.7 µM
- TGI [6]: 11.5 µM
- TGI [7]: 44 µM
- TGI [8]: 25.1 µM
- TGI [9]: 37.7 µM
- TGI [10]: 32.9 µM
- TGI [11]: 33.7 µM
- TGI [12]: 16 µM
- TGI [13]: > 100 µM
- TGI [14]: 55.5 µM
- TGI [15]: 47.7 µM
- TGI [16]: > 100 µM
- TGI [17]: 65 µM
- TGI [18]: 34 µM
- TGI [19]: 40.4 µM
- TGI [20]: 27.7 µM
- TGI [21]: 35.4 µM
- TGI [22]: > 100 µM
- TGI [23]: 39 µM
- TGI [24]: 5.19 µM
- TGI [25]: 43.8 µM
- TGI [26]: > 100 µM
- TGI [27]: > 100 µM
- TGI [28]: 48.7 µM
- TGI [29]: > 100 µM
- TGI [30]: 9.59 µM
- TGI [31]: 29.9 µM
- TGI [32]: 24.3 µM
- TGI [33]: 23.2 µM
- TGI [34]: 9.14 µM
- TGI [35]: 50.8 µM
- TGI [36]: 25.5 µM
- TGI [37]: 10.7 µM
- TGI [38]: 67.3 µM
- TGI [39]: 43.8 µM
- TGI [40]: 47.3 µM
- TGI [41]: 39.7 µM
- TGI [42]: 44.2 µM
- TGI [43]: 37.9 µM
- TGI [44]: > 100 µM
- TGI [45]: > 100 µM
- TGI [46]: 55.2 µM
- TGI [47]: 80.1 µM
- TGI [48]: 35.5 µM
- TGI [49]: 6.44 µM
- TGI [50]: 16 µM
- TGI [51]: 4.52 µM
- TGI [52]: 46.2 µM

Structure (SMILES): NC(=S)N/N=C/C(=O)O
- GI50 [2]: 27 µM
- TGI [2]: > 100 µM
- GI50 [3]: > 100 µM
- TGI [3]: > 100 µM
- GI50 [4]: 37.5 µM
- TGI [4]: > 100 µM
- GI50 [6]: > 100 µM
- TGI [6]: > 100 µM
- GI50 [7]: 81.6 µM
- TGI [7]: > 100 µM
- GI50 [8]: > 100 µM
- TGI [8]: > 100 µM
- GI50 [9]: > 100 µM
- TGI [9]: > 100 µM
- GI50 [10]: 30.1 µM
- TGI [10]: > 100 µM
- GI50 [11]: > 100 µM
- TGI [11]: > 100 µM
- GI50 [12]: > 100 µM
- TGI [12]: > 100 µM
- GI50 [13]: > 100 µM
- TGI [13]: > 100 µM
- GI50 [14]: > 100 µM
- TGI [14]: > 100 µM
- GI50 [15]: 96.8 µM
- TGI [15]: > 100 µM
- GI50 [16]: > 100 µM
- TGI [16]: > 100 µM
- GI50 [17]: > 100 µM
- TGI [17]: > 100 µM
- GI50 [18]: > 100 µM
- TGI [18]: > 100 µM
- GI50 [20]: > 100 µM
- TGI [20]: > 100 µM
- GI50 [53]: > 100 µM
- TGI [53]: > 100 µM
- GI50 [21]: 43.6 µM
- TGI [21]: > 100 µM
- GI50 [22]: > 100 µM
- TGI [22]: > 100 µM
- GI50 [23]: > 100 µM
- TGI [23]: > 100 µM
- GI50 [54]: > 100 µM
- TGI [54]: > 100 µM
- GI50 [24]: 72.5 µM
- TGI [24]: > 100 µM
- GI50 [26]: 96.3 µM
- TGI [26]: > 100 µM
- GI50 [27]: > 100 µM
- TGI [27]: > 100 µM
- GI50 [28]: > 100 µM
- TGI [28]: > 100 µM
- GI50 [29]: 14.7 µM
- TGI [29]: > 100 µM
- GI50 [30]: > 100 µM
- TGI [30]: > 100 µM
- GI50 [32]: > 100 µM
- TGI [32]: > 100 µM
- GI50 [33]: > 100 µM
- TGI [33]: > 100 µM
- GI50 [34]: > 100 µM
- TGI [34]: > 100 µM
- GI50 [35]: > 100 µM
- TGI [35]: > 100 µM
- GI50 [36]: > 100 µM
- TGI [36]: > 100 µM
- GI50 [55]: 21.3 µM
- TGI [55]: > 100 µM
- GI50 [37]: > 100 µM
- TGI [37]: > 100 µM
- GI50 [38]: > 100 µM
- TGI [38]: > 100 µM
- GI50 [39]: > 100 µM
- TGI [39]: > 100 µM
- GI50 [40]: 67.7 µM
- TGI [40]: > 100 µM
- GI50 [41]: > 100 µM
- TGI [41]: > 100 µM
- GI50 [42]: > 100 µM
- TGI [42]: > 100 µM
- GI50 [43]: > 100 µM
- TGI [43]: > 100 µM
- GI50 [44]: 65.4 µM
- TGI [44]: > 100 µM
- GI50 [45]: > 100 µM
- TGI [45]: > 100 µM
- GI50 [47]: > 100 µM
- TGI [47]: > 100 µM
- GI50 [56]: > 100 µM
- TGI [56]: > 100 µM
- GI50 [48]: > 100 µM
- TGI [48]: > 100 µM
- GI50 [49]: 31.7 µM
- TGI [49]: > 100 µM
- GI50 [50]: > 100 µM
- TGI [50]: > 100 µM
- GI50 [51]: 5.58 µM
- TGI [51]: > 100 µM
- GI50 [57]: > 100 µM
- TGI [57]: > 100 µM
- GI50 [52]: > 100 µM
- TGI [52]: > 100 µM
